According to EP4375289A1, “PEPTIDE WITH ANTIMICROBIAL ACTIVITY” (Freie Universität Berlin, priority 2022, dated 2024):
Square brackets hold non-standard residues; d marks the D form. Peptide text beside a SMILES is read from it. 2Abz = Nc1ccccc1C(=O)O; Abu = CC[C@H](N)C(=O)O

Tests used:
C. albicans = assay: Minimum inhibitory concentration (MIC) assay, CLSI broth dilution; format: cell-based; conditions: C. albicans IMT 9655
S. aureus = assay: as above; format: cell-based; conditions: S. aureus ATCC 29213
Method: (§1) Minimum inhibitory concentrations (MIC) assays were performed according to Clinical and Laboratory Standards Institute (CLSI) recommendations in cation-adjusted Mueller-Hinton broth (Mueller-Hinton II) broth in flat-bottomed, 96-well plates (Corning, Wiesbaden, Germany) with an inoculum of 10^5 bacteria/well and incubated at 37°C overnight. The optical density of the cultures was determined at 460 and 600 nm immediately after inoculation and after overnight incubation using a BioTek Synergy HT plate reader. Controls included bacterial strains, medium alone and wells without peptide additions. A serial dilution of each peptide was done before bacteria addition. A serial dilution of media including the respective peptide solvent without peptides supplement (Dimethylsulfoxid; Sigma-Aldrich, Taufkirchen, Germany or 1 x phosphate buffered saline; Biochrom, Berlin, Germany) functions as control to ensure the solvent influence on growth.

S. Typhimurium = assay: as above; format: cell-based; conditions: S. Typhimurium ATCC 14028
Method: as §1

E. coli = assay: as above; format: cell-based; conditions: E. coli ATCC 25922
Method: as §1

P. aeruginosa = assay: as above; format: cell-based; conditions: P. aeruginosa ATCC 27853
Method: as §1

K. pneumoniae = assay: as above; format: cell-based; conditions: K. pneumoniae ATCC 700603
Method: as §1

E. faecalis = assay: as above; format: cell-based; conditions: E. faecalis ATCC 29212
Method: as §1

[1] = Peptide-induced membrane disrupting activity; format: biochemical; conditions: artificial phospholipid membranes at physiological pH
Method: Peptide-induced membrane disrupting activity was determined before by calculation of EC50 values and an increase in bioactivity with a growing degree of side chain fluorination was found.

red blood cells = format: cell-based; conditions: data not shown
Method: Hemolysis assays were performed on red blood cells and cytotoxicity tests with two cell lines (HeLa, A549). No potent hemolytic activity for all peptides up to a concentration of 250 µg/mL, corresponding to concentrations of 140 µM (AbuR14) - 125 µM (TfeGlyR14) was determined (data not shown).

| Structure (SMILES) | 1*MIC (C. albicans) | 1*MIC (S. aureus) | 1*MIC (S. Typhimurium) | 1*MIC (E. coli) | 1*MIC (P. aeruginosa) | 1*MIC (K. pneumoniae) | 1*MIC (E. faecalis) | EC50 [1] | No potent hemolytic activity up to a concentration (corresponding concentration) (red blood cells; corresponding to 250 µg/mL) | peptide-induced hemolysis at minimum concentrations (red blood cells; red blood cells) |
| --- | --- | --- | --- | --- | --- | --- | --- | --- | --- | --- |
| CC[C@H](NC(=O)[C@H](CCCNC(=N)N)NC(=O)[C@H](CC)NC(=O)[C@H](CCCNC(=N)N)NC(=O)[C@@H](C)NC(=O)c1ccccc1NC(=O)[C@@H](Cc1ccccc1)NC(=O)[C@@H](CC(C)C)NC(=O)[C@H](CCCNC(=N)N)NC(=O)[C@H](CC)NC(=O)[C@H](CCCNC(=N)N)NC(=O)[C@H](CC)NC(=O)[C@H](CCCNC(=N)N)NC(C)=O)C(=O)N[C@@H](CCCNC(=N)N)C(N)=O [AbuR14, Ac-R-Abu-R-Abu-R-[I-f-[2]Abz-a]-R-Abu-R-Abu-R-NH2] (Ac-R[Abu]R[Abu]R[dL][dF][2Abz][dA]R[Abu]R[Abu]R-NH2) | 512 µg/mL | ≥1024 µg/mL | 256 µg/mL | 128 µg/mL | ≥1024 µg/mL | ≥1024 µg/mL | 512 µg/mL | 148 µM | > 140 µM | – |
| CC(C)C[C@@H](NC(=O)[C@H](CCCNC(=N)N)NC(=O)[C@H](Cc1c[nH]c2ccccc12)NC(=O)[C@H](CCCNC(=N)N)NC(=O)[C@@H](NC(=O)[C@@H](N)CCCNC(=N)N)C(C)C)C(=O)N[C@H](Cc1ccccc1)C(=O)Nc1ccccc1C(=O)N[C@H](C)C(=O)N[C@@H](CCCNC(=N)N)C(=O)N[C@@H](Cc1c[nH]c2ccccc12)C(=O)N[C@@H](CCCNC(=N)N)C(=O)N[C@H](C(=O)N[C@@H](CCCNC(=N)N)C(=O)O)C(C)C [SAJO-2, H-R-Val-R-Trp-R-[I-f-[2]Abz-a]-R-Trp-R-Val-R-OH, reference compound] (H-RVRWR[dL][dF][2Abz][dA]RWRVR-OH; N-terminus and C-terminus assumed) | – | – | – | – | – | – | – | 70 µM | – | ≥ 0.5 mg/mL |
